Conditions: Gas

FC(C(F)(F)F)C(F)(F)F [1,1,1,2,3,3,3-heptafluoropropane]
Conditions | mass density [kg/m3]
318.15 K, 122.2 kPa | 8.07
318.15 K, 167.7 kPa | 11.21
318.15 K, 230.1 kPa | 15.57
318.15 K, 312 kPa | 21.61
318.15 K, 421 kPa | 30.01
318.15 K, 561.3 kPa | 41.67
318.15 K, 734.2 kPa | 57.85
321.15 K, 123.2 kPa | 8.06
321.15 K, 169.3 kPa | 11.2
321.15 K, 232.2 kPa | 15.54
321.15 K, 315.4 kPa | 21.58
321.15 K, 425.5 kPa | 29.97
321.15 K, 568 kPa | 41.61
321.15 K, 744.1 kPa | 57.77
324.15 K, 124.4 kPa | 8.05
324.15 K, 170.9 kPa | 11.18
324.15 K, 234.2 kPa | 15.53
324.15 K, 318.6 kPa | 21.56
324.15 K, 430.2 kPa | 29.93
324.15 K, 574.9 kPa | 41.56
324.15 K, 754 kPa | 57.71
327.15 K, 125.7 kPa | 8.04
327.15 K, 172.6 kPa | 11.17
327.15 K, 236.2 kPa | 15.51
327.15 K, 321.9 kPa | 21.53
327.15 K, 434.8 kPa | 29.9
327.15 K, 581.5 kPa | 41.52
327.15 K, 763.9 kPa | 57.65
327.15 K, 982.1 kPa | 80.04
330.15 K, 126.8 kPa | 8.04
330.15 K, 132 kPa | 8.39
330.15 K, 174.3 kPa | 11.16
330.15 K, 181.5 kPa | 11.64
330.15 K, 238.5 kPa | 15.5
330.15 K, 248.3 kPa | 16.17
330.15 K, 325.2 kPa | 21.51
330.15 K, 338.6 kPa | 22.45
330.15 K, 439.5 kPa | 29.87
330.15 K, 457.7 kPa | 31.17
330.15 K, 588.3 kPa | 41.48
330.15 K, 611.2 kPa | 43.28
330.15 K, 774.3 kPa | 57.59
330.15 K, 803.6 kPa | 60.09
330.15 K, 998.1 kPa | 79.97
333.15 K, 128 kPa | 8.03
333.15 K, 175.9 kPa | 11.15
333.15 K, 240.7 kPa | 15.48
333.15 K, 328.6 kPa | 21.5
333.15 K, 444.3 kPa | 29.85
333.15 K, 595.3 kPa | 41.45
333.15 K, 784.6 kPa | 57.55
333.15 K, 1013.2 kPa | 79.91
336.15 K, 129 kPa | 8.03
336.15 K, 177.7 kPa | 11.14
336.15 K, 243.4 kPa | 15.47
336.15 K, 331.9 kPa | 21.49
336.15 K, 449.1 kPa | 29.83
336.15 K, 602.5 kPa | 41.42
336.15 K, 795.1 kPa | 57.52
336.15 K, 1029.1 kPa | 79.86
339.15 K, 130.1 kPa | 8.02
339.15 K, 179.3 kPa | 11.14
339.15 K, 245.7 kPa | 15.47
339.15 K, 334.9 kPa | 21.48
339.15 K, 454.4 kPa | 29.82
339.15 K, 609.6 kPa | 41.4
339.15 K, 804.6 kPa | 57.49
339.15 K, 1044.6 kPa | 79.83
339.15 K, 1310.5 kPa | 110.84
342.15 K, 131.3 kPa | 8.02
342.15 K, 181.1 kPa | 11.14
342.15 K, 248.2 kPa | 15.46
342.15 K, 338.6 kPa | 21.47
342.15 K, 459.3 kPa | 29.81
342.15 K, 616.9 kPa | 41.39
342.15 K, 815 kPa | 57.47
342.15 K, 1059.6 kPa | 79.8
342.15 K, 1333.9 kPa | 110.8
345.15 K, 132.5 kPa | 8.02
345.15 K, 182.4 kPa | 11.13
345.15 K, 250.2 kPa | 15.46
345.15 K, 341.9 kPa | 21.47
345.15 K, 464 kPa | 29.81
345.15 K, 624.2 kPa | 41.39
345.15 K, 826.2 kPa | 57.46
345.15 K, 1074.6 kPa | 79.79
345.15 K, 1358 kPa | 110.79
380.15 K, 269.4 kPa | 14.93
380.15 K, 369.5 kPa | 20.73
380.15 K, 503.4 kPa | 28.78
380.15 K, 683 kPa | 39.96
380.15 K, 918.3 kPa | 55.48
380.15 K, 1215.9 kPa | 77.04
380.15 K, 1582.9 kPa | 106.97
380.15 K, 2004.6 kPa | 148.52
380.15 K, 2446.1 kPa | 206.22
380.15 K, 2832.9 kPa | 286.34

— the NIST ThermoML archive (doi:10.1021/je025582+)
